Two compounds from patent US20230241142A1, “USE OF A POLAR EXTRACT OF SKELETONEMA IN PHOTODYNAMIC THERAPY” (IFREMER, priority 2020, published 2023) can be followed below.

Common to all, as to type: cell-based
Data set [1] relates to human sebocytes of the SEBO662AR line. The data set can be described thus: anti-lipogenic effect: total lipids (BODIPY probe) in stimulated sebocytes. Particulars: cells stimulated with lipogenic mixture containing androgens + Cerulenin 10 µM. As for the experimental part:
The effect of S. marinoï polar algae extract on the overproduction of lipids was studied on human sebocytes of the SEBO662AR line (BIOALTERNATIVES line) stimulated by lipogenic and androgenic factors.
SEBO662AR human sebocytes were first cultured at 37° C. in the presence of 5% CO2 and antibiotics in a dedicated culture medium. After at least one day of culturing, lipogenesis is induced in the SEBO662AR cells by their incubation in the presence of lipogenic and androgenic factors. The cells are then incubated in the presence or in the absence of 3 distinct concentrations of the polar extract. As a positive control of lipogenesis inhibitory activity, the SEBO662AR cells are incubated in the presence of cerulenin. At the end of the incubation period, the total lipids are fluorescently labelled, and the inhibition of lipogenesis is determined for each condition.

Data set [2] concerns normal human epidermal keratinocytes (NHEK). The data set can be described thus: anti-inflammatory effect: IL-6 secreted by Poly(I:C)-stimulated keratinocytes (ELISA). Particulars: NHEK stimulated with Poly(I:C) 1 µg/mL + Bafilomycin 100 nM. As for the experimental part: (§1) The anti-inflammatory properties of S. marinoï polar algae extract were evaluated on normal human epidermal keratinocytes (NHEK) These NHEK human epidermal keratinocytes were seeded in K-SFM medium supplemented with 0.25 ng/mL of EGF (Epidermal Growth Factor), 25 µg/mL of pituitary extract and 25 µg/mL of Gentamycin in 96-well plates to then be incubated at 37° C. under an atmosphere containing 5% CO2. After at least one day of culturing, the NHEK cells are pre-incubated for 24 hours in the presence or absence of different concentrations of the S. marinoï polar extract. As a positive control of anti-inflammatory activity, NHEK cells were also pre-incubated in the presence of bafilomycin (100 nM). After this pre-incubation, the treatments were renewed and the NHEK cells are then incubated for 24 hours in the presence of poly (I:C) for inducing inflammation. A control condition without inflammation inducer (unstimulated control) was performed in parallel. After incubation, the culture supernatant was collected to determine the level of keratinocyte inflammation by ELISA by measuring the amounts of IL-6 secreted.
(ELISA stands for enzyme-linked immunosorbent assay.)

Data set [3] shares this test system. Description: cell viability (WST-8) of Poly(I:C)-stimulated keratinocytes. Particulars: NHEK stimulated with Poly(I:C) 1 µg/mL + Bafilomycin 100 nM. As for the experimental part: The anti-inflammatory properties of S. marinoï polar algae extract were evaluated on normal human epidermal keratinocytes (NHEK)
as §1, with “These” for “The anti-inflammatory properties of S. marinoï polar algae extract were evaluated on normal human epidermal keratinocytes (NHEK) These”, “parallel.” for “parallel. After incubation, the culture supernatant was collected to determine the level of keratinocyte inflammation by ELISA by measuring the amounts of IL-6 secreted.”
On the technique in general: Formazan colour is commonly taken as a measure of viable cells.

Turning to `C/C=C/C/C=C/CCC(=O)[C@H]1O[C@H]1C(N)=O` [Cerulenin, cerulenin], in data set [1], the “Lipids (BODIPY® probe) Fluorescence intensity /Number of nuclei” value is 188 853^∗∗ and the Stimulation % was found to be 63%.

Regarding `CO/C1=C\C(C)=C\[C@@H](C)[C@@H](O)[C@@H](C)C/C(C)=C/C=C/[C@H](OC)[C@@H]([C@@H](C)[C@@H](O)[C@H](C)[C@@]2(O)C[C@@H](O)[C@H](C)[C@@H](C(C)C)O2)OC1=O` [Bafilomycin, bafilomycin], the IL6 in data set [2] came out at 13 pg/mL. Further, in data set [3], the “Cell viability (WST-8)” value amounted to 100.
